# Results: ChEMBL document CHEMBL1152732, “Pharmacodynamics and pharmacokinetics studies of phenoxazinium derivatives for antimalarial agent” (Bioorg Med Chem, 2009)
# Active and inactive are the calls of the source. No cut-off for these calls is given here.
# Key:
# [1] = test system: Mus musculus; test: Toxicity in Plasmodium berghei NK65-infected ICR mice (Mus musculus) assessed as death at 20 mg/kg/day, intraperitoneally administered 24 hrs after infection for 3 consecutive days measured 4 days postinfection; assay type: organism-based; set-up: route intraperitoneal; settings: in vivo, ip, 96 h
# [2] = test system: Plasmodium berghei; test: Antimalarial activity as recurrence of parasitaemia at day 5 in Plasmodium berghei NK65 infected ICR mice (Mus musculus) at 4 mg/kg/day peroral dose for 3 days; assay type: functional, organism-based
# [3] = test system: Plasmodium berghei; test: Antimalarial activity as reduced parasitaemia against Plasmodium berghei NK65 infected ICR mice (Mus musculus) at 4 mg/kg intravenous dose at day 4; assay type: functional; set-up: scale not given: the % may be the effect or the level left
# [4] = test system: Plasmodium berghei; test: (§1) Antimalarial activity as reduced parasitaemia at day 6 against Plasmodium berghei NK65 infected ICR mice (Mus musculus) at 30 mg/kg/day peroral dose for 3 days; assay type: functional; set-up: scale not given: the % may be the effect or the level left; settings: route oral
# [5] = test system: Plasmodium berghei; test: Antimalarial activity as reduced parasitaemia against Plasmodium berghei NK65 infected ICR mice (Mus musculus) at 20 mg/kg/day intraperitoneal dose at day 4; assay type: functional; set-up: scale not given: the % may be the effect or the level left
# [6] = Tmax in Wistar rat at 30 mg/kg, po administered as single dose; assay type: ADME, organism-based; set-up: dose 30 mg/kg, route oral; settings: in vivo
# [7] = Clearance in Wistar rat at 30 mg/kg, po administered as single dose; assay type: ADME, organism-based; set-up: dose 30 mg/kg, route oral; settings: in vivo
# [8] = Plasma concentration in fasted Wistar rat at 30 mg/kg/day, po after 49 hrs by HPLC; assay type: ADME, organism-based; set-up: route oral
# [9] = Plasma concentration in Wistar rat at 4 mg/kg, iv administered as single dose after 10 mins by HPLC; assay type: ADME, organism-based; set-up: dose 4 mg/kg, route intravenous
# [10] = Plasma concentration in fasted Wistar rat at 30 mg/kg, po administered as single dose after 2 hrs by HPLC; assay type: ADME, organism-based; set-up: dose 30 mg/kg, route oral
# [11] = Apparent volume of distribution in Wistar rat at 4 mg/kg, iv administered as single dose; assay type: ADME, organism-based; set-up: dose 4 mg/kg, route intravenous; settings: in vivo, read-out: Vz
# [12] = Half life in Wistar rat at 4 mg/kg, iv administered as single dose; assay type: ADME, organism-based; set-up: dose 4 mg/kg, route intravenous; settings: in vivo
# [13] = Plasma concentration in fasted Wistar rat at 30 mg/kg, po administered as single dose after 1 hr by HPLC; assay type: ADME, organism-based; set-up: dose 30 mg/kg, route oral
# [14] = Plasma concentration in Wistar rat at 4 mg/kg, iv administered as single dose after 4 hrs by HPLC; assay type: ADME, organism-based; set-up: dose 4 mg/kg, route intravenous
# [15] = Clearance in Wistar rat at 4 mg/kg, po administered as single dose; assay type: ADME, organism-based; set-up: dose 4 mg/kg, route oral; settings: in vivo
# [16] = test system: Plasmodium berghei; test: Antimalarial activity as reduced parasitaemia at day 7 against Plasmodium berghei NK65 infected ICR mice (Mus musculus) at 30 mg/kg/day peroral dose for 3 days; assay type: functional, organism-based
# [17] = test system: Plasmodium falciparum; test: Antimalarial activity against chloroquine and pyrimethamine-resistant Plasmodium falciparum K1; assay type: functional, organism-based
# [18] = Plasma concentration in fasted Wistar rat at 30 mg/kg, po after 1 hr by HPLC; assay type: ADME, organism-based; set-up: dose 30 mg/kg, route oral
# [19] = test system: Plasmodium berghei; test: as §1; assay type: functional, organism-based
# [20] = Plasma concentration in fasted Wistar rat at 4 mg/kg, po administered as single dose after 2 hrs by HPLC; assay type: ADME, organism-based; set-up: dose 4 mg/kg, route oral
# [21] = test system: Plasmodium berghei; test: Antimalarial activity as reduced parasitaemia against Plasmodium berghei NK65 infected ICR mice (Mus musculus) at 4 mg/kg peroral dose at day 4; assay type: functional; set-up: scale not given: the % may be the effect or the level left; settings: route oral
# [22] = Plasma concentration in fasted Wistar rat at 30 mg/kg/day, po after 25 hrs by HPLC; assay type: ADME, organism-based; set-up: route oral
# [23] = Half life in Wistar rat at 30 mg/kg, po administered as single dose; assay type: ADME, organism-based; set-up: dose 30 mg/kg, route oral; settings: in vivo
# [24] = Selectivity index, ratio of IC50 for rat L6 cells to IC50 for chloroquine and pyrimethamine-resistant Plasmodium falciparum K1; assay type: toxicity, cell-based; settings: read-out: Ratio IC50
# [25] = Plasma concentration in fasted Wistar rat at 4 mg/kg, po administered as single dose after 1 hr by HPLC; assay type: ADME, organism-based; set-up: dose 4 mg/kg, route oral
# [26] = Clearance in Wistar rat at 4 mg/kg, iv administered as single dose; assay type: ADME, organism-based; set-up: dose 4 mg/kg, route intravenous; settings: in vivo
# [27] = test system: Rattus norvegicus; test: Apparent volume of distribution in Wistar rat at 30 mg/kg, po administered as single dose; assay type: ADME, organism-based; set-up: dose 30 mg/kg, route oral; settings: in vivo
# [28] = Oral bioavailability in Wistar rat at 30 mg/kg administered as single dose; assay type: ADME, organism-based; settings: in vivo
# [29] = Tmax in Wistar rat at 4 mg/kg, po administered as single dose; assay type: ADME, organism-based; set-up: dose 4 mg/kg, route oral; settings: in vivo
# [30] = test system: Rattus norvegicus; test: Apparent volume of distribution in Wistar rat at 4 mg/kg, po administered as single dose; assay type: ADME, organism-based; set-up: dose 4 mg/kg, route oral; settings: in vivo
# [31] = test system: Plasmodium berghei; test: Antimalarial activity as reduced parasitaemia at day 4 against Plasmodium berghei NK65 infected ICR mice (Mus musculus) at 100 mg/kg/day peroral dose for 3 days; assay type: functional; set-up: scale not given: the % may be the effect or the level left; settings: route oral
# [32] = test system: Plasmodium berghei; test: Antimalarial activity recurrence of parasitaemia in Plasmodium berghei NK65 infected ICR mice (Mus musculus) at 4 mg/kg/day intravenous dose for 3 days; assay type: functional, organism-based
# [33] = Half life in Wistar rat at 4 mg/kg, po administered as single dose; assay type: ADME, organism-based; set-up: dose 4 mg/kg, route oral; settings: in vivo
# [34] = test system: Plasmodium berghei; test: Antimalarial activity as mean survival days against Plasmodium berghei NK65 infected ICR mice (Mus musculus) at 20 mg/kg/day intraperitoneal dose; assay type: functional
# [35] = Oral bioavailability in Wistar rat at 4 mg/kg administered as single dose; assay type: ADME, organism-based; settings: in vivo
# [36] = test system: Plasmodium berghei; test: Antimalarial activity as reduced parasitaemia against Plasmodium berghei NK65 infected ICR mice (Mus musculus) at 30 mg/kg peroral dose at day 4; assay type: functional; set-up: scale not given: the % may be the effect or the level left; settings: route oral
# [37] = test system: Plasmodium berghei; test: Antimalarial activity as mean survival days against Plasmodium berghei NK65 infected ICR mice (Mus musculus) at 100 mg/kg/day peroral dose at day 4; assay type: functional; settings: route oral
# [38] = test system: Plasmodium berghei; test: Antimalarial activity as reduced parasitaemia against Plasmodium berghei NK65 infected ICR mice (Mus musculus) at 30 mg/kg/day peroral dose at day 4; assay type: functional; set-up: scale not given: the % may be the effect or the level left; settings: route oral
# [39] = test system: Plasmodium berghei; test: Antimalarial activity at day 4 against Plasmodium berghei NK65 infected ICR mice (Mus musculus) as reduced parasitaemia at 10 mg/kg/day intraperitoneal dose 24 hrs post infection; assay type: functional; set-up: scale not given: the % may be the effect or the level left
# [40] = test system: Plasmodium berghei; test: Antimalarial activity as mean survival days against Plasmodium berghei NK65 infected ICR mice (Mus musculus) at 10 mg/kg/day intraperitoneal dose 24 hrs post infection; assay type: functional
# [41] = test system: Plasmodium berghei; test: Antimalarial activity as mean survival days against Plasmodium berghei NK65 infected ICR mice (Mus musculus) at 30 mg/kg/day peroral dose; assay type: functional; settings: route oral
compound,measurement,setting,value
CCCCCCN(CCCCCC)c1ccc2nc3ccc(N4CCCCC4)cc3[o+]c2c1.[Cl-],Activity,[1],Toxic
CCN(CC)c1ccc2nc3ccc(N4CCCCC4)cc3[o+]c2c1.[Cl-],Activity,[2],inactive
same,Activity,[3],85.9%
same,Activity,[4],90%
same,Activity,[5],95.9%
same,Tmax,[6],0.98 h
same,CL/F,[7],43.3 mL/min/kg
same,concentration at 49 h,[8],583 ng/mL
same,concentration at 10 min,[9],468 ng/mL
same,concentration at 2 h,[10],158 ng/mL
same,Vd,[11],35.3 L/kg
same,half-life,[12],8.82 h
same,concentration at 1 h,[13],658 ng/mL
same,concentration at 4 h,[14],96.6 ng/mL
same,CL/F,[15],43.3 mL/min/kg
same,Activity,[16],inactive
same,IC50,[17],2.69 nM
same,concentration at 1 h,[18],299 ng/mL
same,Activity,[19],Active
same,concentration at 2 h,[20],158 ng/mL
same,Activity,[21],76%
same,concentration at 25 h,[22],420 ng/mL
same,half-life,[23],10.3 h
same,selectivity ratio,[24],2390
same,concentration at 1 h,[25],658 ng/mL
same,clearance,[26],44.5 mL/min/kg
same,Vz,[27],38.5 L/kg
same,bioavailability,[28],60.7%
same,Tmax,[29],0.99 h
same,Vz,[30],36.9 L/kg
same,Activity,[31],97.8%
same,Activity,[32],inactive
same,half-life,[33],9.84 h
same,MSD,[34],23.3 days
same,bioavailability,[35],89.6%
same,Activity,[36],96.2%
same,MSD,[37],12.7 days
CN(C)c1ccc2nc3ccc(N4CCSCC4)cc3[o+]c2c1.[Cl-],Activity,[5],94.5%
same,Activity,[31],84.9%
same,MSD,[34],9.8 days
same,MSD,[37],11.3 days
[Cl-].c1cc2nc3ccc(N4CCCC4)cc3[o+]c2cc1N1CCCC1,Activity,[5],95.4%
same,Activity,[31],95.3%
same,MSD,[34],8.3 days
same,MSD,[37],8.3 days
CCN(CC)CCCC(C)Nc1ccnc2cc(Cl)ccc12 (configuration not stated) [CHLOROQUINE],Activity,[38],98.4%
same,Activity,[39],90.6%
same,MSD,[40],22.7 days
same,MSD,[41],9.6 days
CN(C)c1ccc2nc3ccc(N4CCCCC4)cc3[o+]c2c1.[Cl-],Activity,[5],96.4%
same,Activity,[31],97.8%
same,MSD,[34],15.5 days
same,MSD,[37],7.6 days
CCCN(CCC)c1ccc2nc3ccc(N4CCSCC4)cc3[o+]c2c1.[Cl-],Activity,[5],96.5%
same,Activity,[31],68.9%
same,MSD,[34],12.5 days
same,MSD,[37],7 days
CCCCN(CCCC)c1ccc2nc3ccc(N4CCCCC4)cc3[o+]c2c1.[Cl-],Activity,[1],Toxic
CCCN(CCC)c1ccc2nc3ccc(N4CCOCC4)cc3[o+]c2c1.[Cl-],Activity,[5],95.7%
same,Activity,[31],99.5%
same,MSD,[34],18 days
same,MSD,[37],10 days
CCCN(CCC)c1ccc2nc3ccc(N4CCCCC4)cc3[o+]c2c1.[Cl-],Activity,[5],93.2%
same,Activity,[31],97.6%
same,MSD,[34],12.3 days
same,MSD,[37],10.3 days
CCCCCN(CCCCC)c1ccc2nc3ccc(N4CCCCC4)cc3[o+]c2c1.[Cl-],Activity,[1],Toxic
CCCN(CCC)c1ccc2nc3ccc(N4CCCC4)cc3[o+]c2c1.[Cl-],Activity,[5],95.2%
same,Activity,[31],99.6%
same,MSD,[34],14.8 days
same,MSD,[37],10 days
CCN(CC)c1ccc2nc3ccc(N4CCSCC4)cc3[o+]c2c1.[Cl-],Activity,[5],99.2%
same,Activity,[31],66.3%
same,MSD,[34],11.5 days
same,MSD,[37],6.3 days
CCN(CC)c1ccc2nc3ccc(N4CCOCC4)cc3[o+]c2c1.[Cl-],Activity,[5],90%
same,Activity,[31],96.3%
same,MSD,[34],12.3 days
same,MSD,[37],13 days
CN(C)c1ccc2nc3ccc(N4CCCC4)cc3[o+]c2c1.[Cl-],Activity,[5],95.7%
same,Activity,[31],90.3%
same,MSD,[34],7.8 days
same,MSD,[37],10 days
[Cl-].c1cc2nc3ccc(N4CCCCC4)cc3[o+]c2cc1N1CCCCC1,Activity,[5],97.2%
same,Activity,[31],99.8%
same,MSD,[34],16.8 days
same,MSD,[37],11.3 days
